One series concerns DENV-3 strain H87. Briefly: Tetravalent RT-qPCR assay Protocol A, serotype 3. Format: cell-based. As to conditions: Dengue virus, DENV3, 72 h; RT-qPCR serotype 3 H87, Vero cells, day 3. On the procedure: (§1) The antiviral activity of the compounds of the invention was tested against DENV-1 strain TC974#666 (NCPV; Table 6), DENV-2 strain 16681 (Table 7), DENV-3 strain H87 (NCPV; Table 8) and DENV-4 strains H241 (NCPV; Table 9) in a RT-qPCR assay. Therefore, Vero cells were infected with either DENV-1, or -2, or -3, or -4 in the presence or absence of test compounds. At day 3 post-infection, the cells were lysed and cell lysates were used to prepare cDNA of both a viral target (the 3′UTR of DENV; table 2) and a cellular reference gene (β-actin, table 2). Subsequently, a duplex real time PCR was performed on a Lightcycler480 instrument. The generated Cp value is inversely proportional to the amount of RNA expression of these targets. Inhibition of DENV replication by a test compound result in a shift of Cp's for the 3′UTR gene. On the other hand, if a test compound is toxic to the cells, a similar effect on β-actin expression will be observed. The comparative ΔΔCp method is used to calculate EC50, which is based on the relative gene expression of the target gene (3′UTR) normalized with the cellular housekeeping gene (β-actin).
(§2) The culture medium consisted of minimal essential medium supplemented with 2% of heat-inactivated fetal calf serum, 0.04% gentamycin (50 mg/mL) and 2 mM of L-glutamine. Vero cells, obtained from ECACC, were suspended in culture medium and 75 μL/well was added in 96-well plates (10000 cells/well), which already contain the antiviral compounds. Typically, these plates contain a 4-fold serial dilution of 9 dilution steps of the test compound at 200 times the final concentration in 100% DMSO (500 nL; final concentration range: 25 μM-0.00038 μM). In addition, each plate contains wells which are assigned as virus controls (containing cells and virus in the absence of compound) and cell controls (containing cells in the absence of virus and compound). Once the cells were added in the plates, the plates were incubated in a fully humidified incubator (37° C., 5% CO2) until the next day. Then, DENV-1 strain TC974#666 at an MOI of 0.6, DENV-2 strain 16681 at an MOI of 0.01, DENV-3 strain H87 at an MOI of 1.0 and DENV-4 strains H241 at an MOI of 0.2 and SG/06K2270DK1/2005 at an MOI of 0.16, were added. Therefore, 25 μL of virus suspension was added to all the wells containing test compound and to the wells assigned as virus control. In parallel, 25 μL of culture medium was added to the cell controls. Next, the plates were incubated for 3 days in a fully humidified incubator (37° C., 5% CO2). After 3 days, the supernatant was removed from the wells and the cells were washed twice with ice-cold PBS (˜100 μL). The cell pellets within the 96-well plates were stored at −80° C. for at least 1 day. Next, RNA was extracted using the Cells-to-CT™ lysis kit, according to the manufacture's guideline (Applied Biosystems). The cell lysates can be stored at −80° C. or immediately used in the reverse transcription step.
(§3) In preparation of the reverse transcription step, mix A (table 3A) was prepared and 7.57 μL/well was dispensed in a 96-well plate. After addition of 5 μL of the cell lysates, a five minute denaturation step at 75° C. was performed (table 3B). Afterwards, 7.43 μL of mix B was added (table 3C) and the reverse transcription step was initiated (table 3D) to generate cDNA.
(§4) Finally, a RT-qPCR mix was prepared, mix C (table 4A), dispensed in 96-well LightCycler qPCR plates to which 3 μL of cDNA was added and the qPCR was performed according to the conditions in table 4B on a LightCycler 480. Using the LightCycler software and an in-house LIMS system, dose response curves for each compound were calculated and the half maximal effective concentration (EC50) and the half maximal cytotoxic concentration (CC50) were determined.

For a further series, the system named is DENV-2 16681 strain. Nature of the series: DENV-2 antiviral assay (eGFP-labeled virus in Vero cells). Format: cell-based, Dengue virus. To be noted: DENV-2 16681 eGFP, MOI 0.5, 3 days. How it is done: The antiviral activity of all the compounds of the invention was tested against DENV-2 16681 strain which was labeled with enhanced green fluorescent protein (eGPF; Table 1). The culture medium consists of minimal essential medium supplemented with 2% of heat-inactivated fetal calf serum, 0.04% gentamycin (50 mg/mL) and 2 mM of L-glutamine. Vero cells, obtained from ECACC, were suspended in culture medium and 25 μL was added to 384-well plates (2500 cells/well), which already contain the antiviral compounds. Typically, these plates contain a 4-fold serial dilution of 9 dilution steps of the test compound at 200 times the final concentration in 100% DMSO (200 nL). In addition, each compound concentration is tested in quadruplicate (final concentration range: 25 μM-0.00038 μM). Finally, each plate contains wells which are assigned as virus controls (containing cells and virus in the absence of compound), cell controls (containing cells in the absence of virus and compound) and medium controls (containing medium in the absence of cells, virus and compounds). To the wells assigned as medium control, 25 μL of culture medium was added instead of Vero cells. Once the cells were added to the plates, the plates were incubated for 30 minutes at room temperature to allow the cells to distribute evenly within the wells. Next, the plates were incubated in a fully humidified incubator (37° C., 5% CO2) until the next day. Then, DENV-2 strain 16681, labeled with eGFP, was added at a multiplicity of infection (MOI) of 0.5. Therefore, 15 μL of virus suspension was added to all the wells containing test compound and to the wells assigned as virus control. In parallel, 15 μL of culture medium was added to the medium and cell controls. Next, the plates were incubated for 3 days in a fully humidified incubator (37° C., 5% CO2). At the day of the read out, the eGFP fluorescence was measured using an automated fluorescence microscope at 488 nm (blue laser). Using an in-house LIMS system, inhibition dose response curves for each compound were calculated and the half maximal effective concentration (EC50) was determined. Therefore, the percent inhibition (I) for every test concentration is calculated using the following formula: I=100*(ST−SCC)/(SVC−SCC); ST, SCC and SVC are the amount of eGFP signal in the test compound, cell control and virus control wells, respectively. The EC50 represents the concentration of a compound at which the virus replication is inhibited with 50%, as measured by a 50% reduction of the eGFP fluorescent intensity compared to the virus control. The EC50 is calculated using linear interpolation.

In a further series the test system is Vero cells. Nature of the series: in vitro. Format: cell-based. To be noted: African green monkey. How it is done:
(§5) In parallel, the toxicity of the compounds was assessed on the same plates. Once the read-out for the eGFP signal was done, 10 μL of resazurin, a cell viability stain, was added to all wells of the 384-well plates. The resazurin assay is based on the reduction of the blue resazurin by NADH, produced by the cells, into the highly fluorescent product, resorufin. The formation of pink fluorescent resorufin is directly related to the number of viable cells in the well. The plates were incubated for an additional 5 hours in a fully humidified incubator (37° C., 5% CO2). Next, the plates were measured on an Infinite reader (Tecan) using an excitation wavelength of 530 nm. The half maximal cytotoxic concentration (CC50) was also determined, defined as the concentration required to reduce the resazurin conversion by 50% compared to that of the cell control wells. Finally, the selectivity index (SI) was determined for the compounds, which was calculated as followed: SI=CC50/EC50.

Another series relates to DENV-4 strains H241. Briefly: Tetravalent RT-qPCR assay Protocol A, serotype 4. Format: cell-based. To be noted: Dengue virus, DENV4, 72 h; RT-qPCR serotype 4 H241, Vero cells, day 3. How it is done: as §1, §2, §3, §4
A further series concerns DENV-1 strain TC974#666. Briefly: Tetravalent RT-qPCR assay Protocol A, serotype 1. To be noted: Dengue virus, DENV1, 72 h; RT-qPCR serotype 1 TC974#666, Vero cells, day 3. The class given is cell-based. On the procedure: as §1, §2, §3, §4
In general terms: Quantitative PCR measures a nucleic acid by following its amplification.

The subject of another series is DENV-2 strain 16681. Briefly: Tetravalent RT-qPCR assay Protocol A, serotype 2. Format: cell-based. As to conditions: Dengue virus, DENV2, 72 h; RT-qPCR serotype 2 16681, Vero cells, day 3. On the procedure: as §1, §2, §3, §4
Series [1] is described as follows: in vitro. Format: cell-based. As to conditions: African green monkey, CC50. How it is done:
as §1, §2, §4

A short description of series [2]: in vitro. To be noted: African green monkey, CC50. Format: cell-based. How it is done: as §5
This is another data set of the same source.

For `COc1cc(NC(C(=O)c2c[nH]c3cc(OC)ccc23)c2ccc(F)cc2OC)cc(S(C)(=O)=O)c1` (single isomer, unassigned) [Enantiomer 5B, 2-(4-fluoro-2-methoxyphenyl)-1-(6-methoxy-1H-indol-3-yl)-2-((3-methoxy-5-(methylsulfonyl)phenyl)amino)ethanone], the concentration giving a half-maximal response (EC50) – broadly, the midpoint of the concentration-response curve – in the series with DENV-3 strain H87 was determined as 100 nM; in the series with DENV-2 16681 strain (listed as 5B*), 1 nM; in the series on DENV-4 strains H241, 186 nM; in the series on DENV-1 strain TC974#666, 8.89 nM; in the series on DENV-2 strain 16681, 1.23 nM. Besides, the CC50 (commonly the concentration that lowers cell viability or growth by half) in the series on Vero cells was above 13000 nM.

On to `COc1cc(NC(C(=O)c2c[nH]c3cc(F)c(F)cc23)c2ccc(F)cc2OC)cc(S(C)(=O)=O)c1` (single isomer, unassigned) [Enantiomer 7A, 1-(5,6-difluoro-1H-indol-3-yl)-2-(4-fluoro-2-methoxyphenyl)-2-((3-methoxy-5-(methylsulfonyl)phenyl)amino)ethanone], for which the half-maximal effective concentration (EC50) in the series on DENV-3 strain H87 amounted to 61.6 nM; in the series with DENV-2 16681 strain (listed as 7A*), 0.76 nM; with DENV-4 strains H241 it was 142 nM; with DENV-1 strain TC974#666, 3.7 nM; with DENV-2 strain 16681, 0.525 nM. The molecule also registered a CC50 in the series with Vero cells of 4400 nM. In “in vitro [1]”, this molecule returned a cytotoxic concentration (CC50) at 3 days of 3870 nM.

For the molecule `COc1cc(NC(C(=O)c2c[nH]c3c(Cl)c(OC)ccc23)c2ccc(F)cc2OC)cc(S(C)(=O)=O)c1` (single isomer, unassigned) [Enantiomer 12A, 1-(7-chloro-6-methoxy-1H-indol-3-yl)-2-(4-fluoro-2-methoxyphenyl)-2-((3-methoxy-5-(methylsulfonyl)phenyl)amino)ethanone], the half-maximal effective concentration (EC50) was determined as 73.8 nM in the series on DENV-3 strain H87; 0.42 nM with DENV-2 16681 strain (listed as 12A*); 261 nM in the series with DENV-4 strains H241; 14 nM in the series with DENV-1 strain TC974#666; 0.25 nM in the series on DENV-2 strain 16681. This molecule yielded a CC50 in “in vitro [2]” above 25000 nM.

Take `COc1cc(NC(C(=O)c2c[nH]c3c(C)cc(F)cc23)c2ccc(F)cc2OC)cc(S(C)(=O)=O)c1` (single isomer, unassigned) [Enantiomer 8A, 2-(4-fluoro-2-methoxyphenyl)-1-(5-fluoro-7-methyl-1H-indol-3-yl)-2-((3-methoxy-5-(methylsulfonyl)phenyl)amino)ethanone]: the EC50 in the series with DENV-3 strain H87 worked out at 82.1 nM; in the series on DENV-2 16681 strain (listed as 8A*) it was 1 nM; with DENV-4 strains H241 it was 248 nM; in the series with DENV-1 strain TC974#666, 6.83 nM; in the series with DENV-2 strain 16681, 1.27 nM. The CC50 with Vero cells is 5100 nM. In the series “in vitro [1]”, this molecule returned a 50% cytotoxic concentration (CC50) at 3 days of 4400 nM.

For the molecule `COc1cc(NC(C(=O)c2c[nH]c3cc(F)ccc23)c2ccc(F)cc2OC)cc(S(C)(=O)=O)c1` (single isomer, unassigned) [Enantiomer 1A, 1-(6-fluoro-1H-indol-3-yl)-2-(4-fluoro-2-methoxyphenyl)-2-((3-methoxy-5-(methylsulfonyl)phenyl)amino)ethanone], the EC50 came to 49.6 nM in the series with DENV-3 strain H87; 0.88 nM with DENV-2 16681 strain (listed as 1A*); 165 nM in the series with DENV-4 strains H241; 5.18 nM with DENV-1 strain TC974#666; 0.83 nM with DENV-2 strain 16681. The molecule also gave a CC50 in the series on Vero cells of 5900 nM. The molecule also gave a half-maximal cytotoxic concentration (CC50) at 3 days in the series “in vitro [1]” of 3520 nM.

As to `COc1cc(NC(C(=O)c2c[nH]c3ccc(C)cc23)c2ccc(F)cc2OC)cc(S(C)(=O)=O)c1` (single isomer, unassigned) [Enantiomer 15A, 2-(4-fluoro-2-methoxyphenyl)-2-((3-methoxy-5-(methylsulfonyl)phenyl)amino)-1-(5-methyl-1H-indol-3-yl)ethanone], the EC50 in the series with DENV-3 strain H87 turned out to be 22.1 nM; with DENV-2 16681 strain (listed as 15A*), 0.8 nM; in the series on DENV-4 strains H241, 91 nM; in the series on DENV-1 strain TC974#666, 3.51 nM; in the series with DENV-2 strain 16681, 1.02 nM. The same molecule had a CC50 in the series on Vero cells of 5400 nM. In addition, the CC50 at 3 days in “in vitro [1]” was above 2500 nM.

As for `COc1cc(NC(C(=O)c2c[nH]c3c(C)c(Cl)ccc23)c2ccc(F)cc2OC)cc(S(C)(=O)=O)c1` (single isomer, unassigned) [Enantiomer 3A, 1-(6-chloro-7-methyl-1H-indol-3-yl)-2-(4-fluoro-2-methoxyphenyl)-2-((3-methoxy-5-(methylsulfonyl)phenyl)amino)ethanone], the EC50 is 58.6 nM in the series on DENV-3 strain H87; 0.3 nM in the series with DENV-2 16681 strain (listed as 3A*); 121 nM in the series with DENV-4 strains H241; 7.18 nM in the series with DENV-1 strain TC974#666; 0.285 nM in the series with DENV-2 strain 16681. The midpoint of cytotoxicity in the series on Vero cells, the CC50, lay at 4800 nM. In addition, the half-maximal cytotoxic concentration (CC50) at 3 days in the series “in vitro [1]” amounted to 3910 nM.

The values above are taken from patent publication US10029984B2, “Mono- or di-substituted indole derivatives as dengue viral replication inhibitors” (Janssen Pharmaceuticals, Inc., priority 2015, dated 2018).
